# Measured values as given in the kinase profiling compilation of Christmann-Franck et al. (2016).
# Experiments:
# Test in all cases: radiometric filter-binding kinase assay
# [1] = target: MARK4 (human) (UniProt Q96L34)
# [2] = target: EPHB4 (human) (UniProt P54760)
# [3] = target: HIPK1 (human) (UniProt Q86Z02)
# [4] = target: CHEK1 (human) (UniProt O14757)
# [5] = target: CLK2 (human) (UniProt P49760)
# [6] = target: HIPK3 (human) (UniProt Q9H422)
# [7] = target: NUAK1 (human) (UniProt O60285)
# [8] = target: MARK3 (human) (UniProt P27448)
# [9] = target: BRSK2 (human) (UniProt Q8IWQ3)
# [10] = target: CDK2 CCNA2 (human) (UniProt P20248+P24941)
# [11] = target: DAPK1 (human) (UniProt P53355)
# [12] = target: SRC (human) (UniProt P12931)
# [13] = target: JAK2 JH1 JH2 (human) (UniProt O60674)
# [14] = target: EEF2K (human) (UniProt O00418)
# [15] = target: PLK1 (human) (UniProt P53350)
# [16] = target: MAPK3 (human) (UniProt P27361)
# [17] = target: CHEK2 (human) (UniProt O96017)
# [18] = target: ERBB4 (human) (UniProt Q15303)
# [19] = target: FLT1 (human) (UniProt P17948)
# [20] = target: AURKA (human) (UniProt O14965)
# [21] = target: MAPK1 (human) (UniProt P28482)
# [22] = target: PAK6 (human) (UniProt Q9NQU5)
# [23] = target: STK3 (human) (UniProt Q13188)
# [24] = target: RPS6KA5 KD1 KD2 (human) (UniProt O75582)
# [25] = target: RPS6KA3 KD1 KD2 (human) (UniProt P51812)
# [26] = target: MAP3K1 (human) (UniProt Q13233)
# [27] = tested on: SGK1 (human), O00141 [S422D]
# [28] = target: GCK (human) (UniProt Q12851)
# [29] = target: RPS6KA1 KD1 KD2 (human) (UniProt Q15418)
# [30] = target: PRKCA (human) (UniProt P17252)
# [31] = target: NTRK1 (human) (UniProt P04629)
# [32] = target: PRKCZ (human) (UniProt Q05513)
# [33] = target: MST4 (human) (UniProt Q9P289)
# GCK (human), sequence (Q12851 whole entry, looked up): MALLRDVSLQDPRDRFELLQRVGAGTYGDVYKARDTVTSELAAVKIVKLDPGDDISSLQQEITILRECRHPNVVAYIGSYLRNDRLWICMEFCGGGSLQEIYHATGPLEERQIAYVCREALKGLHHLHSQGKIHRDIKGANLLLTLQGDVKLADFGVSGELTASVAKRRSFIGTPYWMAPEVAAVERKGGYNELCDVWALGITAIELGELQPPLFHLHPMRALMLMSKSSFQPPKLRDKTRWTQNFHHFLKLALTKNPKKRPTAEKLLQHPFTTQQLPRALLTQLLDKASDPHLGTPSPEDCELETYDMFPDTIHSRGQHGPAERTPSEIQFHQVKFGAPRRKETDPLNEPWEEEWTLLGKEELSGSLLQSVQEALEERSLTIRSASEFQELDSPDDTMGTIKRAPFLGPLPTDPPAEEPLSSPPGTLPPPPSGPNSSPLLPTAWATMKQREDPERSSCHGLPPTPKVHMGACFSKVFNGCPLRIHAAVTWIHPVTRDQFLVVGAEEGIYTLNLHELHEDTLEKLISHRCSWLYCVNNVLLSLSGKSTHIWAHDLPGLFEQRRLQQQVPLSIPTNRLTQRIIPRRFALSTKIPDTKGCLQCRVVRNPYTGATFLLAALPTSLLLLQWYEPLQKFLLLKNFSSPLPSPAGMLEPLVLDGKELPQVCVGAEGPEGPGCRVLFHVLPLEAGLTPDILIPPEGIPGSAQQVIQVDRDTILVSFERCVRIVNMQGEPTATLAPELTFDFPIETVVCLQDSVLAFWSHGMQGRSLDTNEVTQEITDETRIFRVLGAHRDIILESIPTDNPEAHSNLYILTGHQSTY
# EPHB4 (human), sequence (P54760 whole entry, looked up): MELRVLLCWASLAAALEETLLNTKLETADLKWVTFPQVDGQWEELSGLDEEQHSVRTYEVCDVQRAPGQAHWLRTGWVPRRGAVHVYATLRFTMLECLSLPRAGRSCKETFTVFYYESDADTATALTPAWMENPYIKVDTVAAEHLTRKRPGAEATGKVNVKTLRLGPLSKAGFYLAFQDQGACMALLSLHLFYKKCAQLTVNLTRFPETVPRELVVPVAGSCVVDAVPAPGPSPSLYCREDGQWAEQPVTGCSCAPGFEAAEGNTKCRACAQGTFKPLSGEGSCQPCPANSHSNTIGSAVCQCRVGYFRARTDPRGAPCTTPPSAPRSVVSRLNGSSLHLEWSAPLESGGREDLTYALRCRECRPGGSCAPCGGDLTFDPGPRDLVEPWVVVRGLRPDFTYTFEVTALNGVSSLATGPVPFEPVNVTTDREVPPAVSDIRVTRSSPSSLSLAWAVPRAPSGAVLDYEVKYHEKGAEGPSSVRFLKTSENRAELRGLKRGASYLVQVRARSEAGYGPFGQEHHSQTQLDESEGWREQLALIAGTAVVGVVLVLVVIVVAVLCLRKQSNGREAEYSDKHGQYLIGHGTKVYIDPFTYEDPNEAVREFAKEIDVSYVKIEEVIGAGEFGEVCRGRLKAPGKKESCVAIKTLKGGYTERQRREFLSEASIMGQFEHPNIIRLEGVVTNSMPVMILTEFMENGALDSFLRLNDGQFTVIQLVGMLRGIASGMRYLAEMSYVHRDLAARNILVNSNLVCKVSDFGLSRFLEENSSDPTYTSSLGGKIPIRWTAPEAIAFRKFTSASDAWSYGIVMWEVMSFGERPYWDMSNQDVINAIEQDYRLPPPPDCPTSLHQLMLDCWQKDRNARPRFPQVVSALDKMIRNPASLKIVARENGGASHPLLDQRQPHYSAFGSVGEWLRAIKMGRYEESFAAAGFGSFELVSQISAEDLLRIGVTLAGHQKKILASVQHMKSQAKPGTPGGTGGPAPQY
# NUAK1 (human), sequence (O60285 whole entry, looked up): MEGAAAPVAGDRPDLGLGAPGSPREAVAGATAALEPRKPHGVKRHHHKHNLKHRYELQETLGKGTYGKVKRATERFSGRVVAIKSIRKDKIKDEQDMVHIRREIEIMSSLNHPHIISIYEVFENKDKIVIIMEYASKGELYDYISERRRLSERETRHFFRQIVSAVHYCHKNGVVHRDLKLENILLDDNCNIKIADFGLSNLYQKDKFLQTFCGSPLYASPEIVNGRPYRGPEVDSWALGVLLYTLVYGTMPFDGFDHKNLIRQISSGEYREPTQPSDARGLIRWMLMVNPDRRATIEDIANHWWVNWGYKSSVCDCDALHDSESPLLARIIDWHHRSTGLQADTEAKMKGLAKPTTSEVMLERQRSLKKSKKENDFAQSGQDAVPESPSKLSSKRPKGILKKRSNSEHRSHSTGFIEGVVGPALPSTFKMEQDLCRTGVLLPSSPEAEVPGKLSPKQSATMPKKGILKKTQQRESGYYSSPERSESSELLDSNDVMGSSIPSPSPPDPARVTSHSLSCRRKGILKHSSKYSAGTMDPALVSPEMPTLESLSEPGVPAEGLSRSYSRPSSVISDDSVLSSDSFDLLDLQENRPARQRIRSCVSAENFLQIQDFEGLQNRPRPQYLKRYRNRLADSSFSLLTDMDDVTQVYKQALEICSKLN
# FLT1 (human), sequence (P17948 whole entry, looked up): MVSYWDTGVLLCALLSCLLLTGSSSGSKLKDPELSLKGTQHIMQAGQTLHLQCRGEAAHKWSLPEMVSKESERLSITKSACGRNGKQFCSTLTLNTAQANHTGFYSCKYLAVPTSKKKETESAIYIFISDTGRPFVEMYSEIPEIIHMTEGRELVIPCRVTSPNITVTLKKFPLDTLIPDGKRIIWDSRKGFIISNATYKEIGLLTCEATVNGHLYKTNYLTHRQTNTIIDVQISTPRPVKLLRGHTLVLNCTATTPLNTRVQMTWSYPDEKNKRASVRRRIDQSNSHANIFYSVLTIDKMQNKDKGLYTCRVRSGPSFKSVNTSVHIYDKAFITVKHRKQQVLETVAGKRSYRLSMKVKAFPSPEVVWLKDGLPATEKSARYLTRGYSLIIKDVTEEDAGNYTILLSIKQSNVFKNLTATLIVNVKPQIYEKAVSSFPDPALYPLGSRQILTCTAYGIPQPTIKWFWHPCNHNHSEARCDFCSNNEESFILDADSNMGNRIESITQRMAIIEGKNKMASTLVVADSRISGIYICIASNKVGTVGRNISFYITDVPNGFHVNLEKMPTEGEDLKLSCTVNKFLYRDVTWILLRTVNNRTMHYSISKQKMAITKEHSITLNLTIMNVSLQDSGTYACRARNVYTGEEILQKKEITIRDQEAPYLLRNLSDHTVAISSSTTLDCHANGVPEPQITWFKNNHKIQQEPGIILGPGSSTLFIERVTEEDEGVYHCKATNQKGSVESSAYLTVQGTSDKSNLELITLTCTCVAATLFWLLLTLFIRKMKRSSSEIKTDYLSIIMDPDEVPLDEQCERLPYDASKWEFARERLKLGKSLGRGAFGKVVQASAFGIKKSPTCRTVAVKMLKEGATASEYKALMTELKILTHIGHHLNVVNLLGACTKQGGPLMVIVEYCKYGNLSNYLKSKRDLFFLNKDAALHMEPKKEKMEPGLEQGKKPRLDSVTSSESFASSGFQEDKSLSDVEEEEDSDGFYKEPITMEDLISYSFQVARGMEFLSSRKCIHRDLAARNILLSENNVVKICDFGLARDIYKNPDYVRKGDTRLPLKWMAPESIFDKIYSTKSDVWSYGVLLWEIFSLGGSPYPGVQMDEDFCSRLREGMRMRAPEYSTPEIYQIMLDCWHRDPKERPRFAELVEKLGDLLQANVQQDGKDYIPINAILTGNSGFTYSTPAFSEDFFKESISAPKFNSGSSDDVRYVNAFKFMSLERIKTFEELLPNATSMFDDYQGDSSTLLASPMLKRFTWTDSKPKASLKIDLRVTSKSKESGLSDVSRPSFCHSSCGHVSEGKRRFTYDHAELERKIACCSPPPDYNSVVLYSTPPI
# NTRK1 (human), sequence (P04629 whole entry, looked up): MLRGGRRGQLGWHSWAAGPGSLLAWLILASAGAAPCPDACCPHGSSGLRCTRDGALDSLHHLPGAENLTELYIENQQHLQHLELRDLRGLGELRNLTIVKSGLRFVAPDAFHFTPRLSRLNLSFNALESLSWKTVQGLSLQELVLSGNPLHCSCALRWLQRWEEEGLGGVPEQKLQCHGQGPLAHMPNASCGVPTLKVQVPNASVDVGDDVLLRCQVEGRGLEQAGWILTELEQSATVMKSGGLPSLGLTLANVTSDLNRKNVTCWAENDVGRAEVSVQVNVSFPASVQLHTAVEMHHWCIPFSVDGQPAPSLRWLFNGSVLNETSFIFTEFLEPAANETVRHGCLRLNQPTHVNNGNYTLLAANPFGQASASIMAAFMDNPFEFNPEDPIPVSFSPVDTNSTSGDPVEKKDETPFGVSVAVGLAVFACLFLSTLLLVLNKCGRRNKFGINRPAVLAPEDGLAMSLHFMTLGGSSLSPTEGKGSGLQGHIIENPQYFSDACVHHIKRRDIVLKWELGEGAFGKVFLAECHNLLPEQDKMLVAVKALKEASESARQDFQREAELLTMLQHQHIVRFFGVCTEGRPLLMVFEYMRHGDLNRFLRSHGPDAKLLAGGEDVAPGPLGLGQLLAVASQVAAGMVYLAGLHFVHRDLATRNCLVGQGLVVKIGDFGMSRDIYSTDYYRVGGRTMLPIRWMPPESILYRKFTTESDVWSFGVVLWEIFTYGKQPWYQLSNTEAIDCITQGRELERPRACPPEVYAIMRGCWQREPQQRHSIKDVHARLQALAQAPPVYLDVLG
# CHEK1 (human), sequence (O14757 whole entry, looked up): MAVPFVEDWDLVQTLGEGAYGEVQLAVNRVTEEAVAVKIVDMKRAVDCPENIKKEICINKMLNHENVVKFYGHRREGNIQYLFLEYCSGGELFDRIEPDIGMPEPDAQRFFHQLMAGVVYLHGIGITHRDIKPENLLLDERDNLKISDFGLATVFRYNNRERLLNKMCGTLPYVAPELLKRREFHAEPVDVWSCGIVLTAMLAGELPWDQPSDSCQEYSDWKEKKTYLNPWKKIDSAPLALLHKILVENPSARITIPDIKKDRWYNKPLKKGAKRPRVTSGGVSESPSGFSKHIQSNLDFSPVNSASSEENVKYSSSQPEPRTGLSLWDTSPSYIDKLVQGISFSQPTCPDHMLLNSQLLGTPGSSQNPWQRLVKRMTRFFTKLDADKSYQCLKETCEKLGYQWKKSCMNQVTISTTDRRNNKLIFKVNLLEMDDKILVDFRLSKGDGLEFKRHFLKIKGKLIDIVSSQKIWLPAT
smiles,measurement,setting,value
NC(=O)c1cc2c(-c3cccc(-c4ccccc4)c3)cnc(N)c2s1,residual activity,[1]; compound 0.1 µM,88%
same,residual activity,[1]; compound 1.0 µM,82%
same,residual activity,[1]; compound 10.0 µM,46%
same,residual activity,[2]; compound 0.1 µM,107%
same,residual activity,[2]; compound 1.0 µM,76%
same,residual activity,[2]; compound 10.0 µM,19%
same,residual activity,[3]; compound 0.1 µM,86%
same,residual activity,[3]; compound 1.0 µM,37%
same,residual activity,[3]; compound 10.0 µM,13%
same,residual activity,[4]; compound 0.1 µM,100%
same,residual activity,[4]; compound 1.0 µM,64%
same,residual activity,[4]; compound 10.0 µM,29%
same,residual activity,[5]; compound 0.1 µM,50%
same,residual activity,[5]; compound 1.0 µM,10%
same,residual activity,[5]; compound 10.0 µM,2%
same,residual activity,[6]; compound 0.1 µM,76%
same,residual activity,[6]; compound 1.0 µM,52%
same,residual activity,[6]; compound 10.0 µM,19%
same,residual activity,[7]; compound 0.1 µM,81%
same,residual activity,[7]; compound 1.0 µM,24%
same,residual activity,[7]; compound 10.0 µM,6%
same,residual activity,[8]; compound 0.1 µM,104%
same,residual activity,[8]; compound 1.0 µM,69%
same,residual activity,[8]; compound 10.0 µM,26%
same,residual activity,[9]; compound 0.1 µM,109%
same,residual activity,[9]; compound 1.0 µM,108%
same,residual activity,[9]; compound 10.0 µM,130%
same,residual activity,[10]; compound 0.1 µM,97%
same,residual activity,[10]; compound 1.0 µM,87%
same,residual activity,[10]; compound 10.0 µM,35%
same,residual activity,[11]; compound 0.1 µM,76%
same,residual activity,[11]; compound 1.0 µM,40%
same,residual activity,[11]; compound 10.0 µM,10%
same,residual activity,[12]; compound 0.1 µM,100%
same,residual activity,[12]; compound 1.0 µM,89%
same,residual activity,[12]; compound 10.0 µM,108%
same,residual activity,[13]; compound 0.1 µM,101%
same,residual activity,[13]; compound 1.0 µM,90%
same,residual activity,[13]; compound 10.0 µM,43%
same,residual activity,[14]; compound 0.1 µM,124%
same,residual activity,[14]; compound 1.0 µM,114%
same,residual activity,[14]; compound 10.0 µM,117%
same,residual activity,[15]; compound 0.1 µM,108%
same,residual activity,[15]; compound 1.0 µM,98%
same,residual activity,[15]; compound 10.0 µM,97%
same,residual activity,[16]; compound 1.0 µM,58%
same,residual activity,[16]; compound 10.0 µM,16%
same,residual activity,[17]; compound 0.1 µM,104%
same,residual activity,[17]; compound 1.0 µM,37%
same,residual activity,[17]; compound 10.0 µM,18%
same,residual activity,[18]; compound 1.0 µM,40%
same,residual activity,[18]; compound 10.0 µM,17%
same,residual activity,[19]; compound 0.1 µM,100%
same,residual activity,[19]; compound 1.0 µM,55%
same,residual activity,[19]; compound 10.0 µM,22%
same,residual activity,[20]; compound 0.1 µM,95%
same,residual activity,[20]; compound 1.0 µM,99%
same,residual activity,[20]; compound 10.0 µM,89%
same,residual activity,[21]; compound 0.1 µM,81%
same,residual activity,[21]; compound 1.0 µM,35%
same,residual activity,[21]; compound 10.0 µM,6%
same,residual activity,[22]; compound 0.1 µM,85%
same,residual activity,[22]; compound 1.0 µM,70%
same,residual activity,[22]; compound 10.0 µM,31%
same,residual activity,[23]; compound 0.1 µM,108%
same,residual activity,[23]; compound 1.0 µM,59%
same,residual activity,[23]; compound 10.0 µM,21%
same,residual activity,[24]; compound 1.0 µM,97%
same,residual activity,[24]; compound 10.0 µM,70%
same,residual activity,[25]; compound 0.1 µM,108%
same,residual activity,[25]; compound 1.0 µM,84%
same,residual activity,[25]; compound 10.0 µM,53%
same,residual activity,[26]; compound 0.1 µM,108%
same,residual activity,[26]; compound 1.0 µM,73%
same,residual activity,[26]; compound 10.0 µM,30%
same,residual activity,[27]; compound 0.1 µM,92%
same,residual activity,[27]; compound 1.0 µM,58%
same,residual activity,[27]; compound 10.0 µM,46%
same,residual activity,[28]; compound 0.1 µM,7%
same,residual activity,[28]; compound 1.0 µM,6%
same,residual activity,[28]; compound 10.0 µM,5%
same,residual activity,[29]; compound 0.1 µM,92%
same,residual activity,[29]; compound 1.0 µM,65%
same,residual activity,[29]; compound 10.0 µM,31%
same,residual activity,[30]; compound 0.1 µM,94%
same,residual activity,[30]; compound 1.0 µM,64%
same,residual activity,[30]; compound 10.0 µM,18%
same,residual activity,[31]; compound 0.1 µM,92%
same,residual activity,[31]; compound 1.0 µM,73%
same,residual activity,[31]; compound 10.0 µM,28%
same,residual activity,[32]; compound 0.1 µM,108%
same,residual activity,[32]; compound 1.0 µM,93%
same,residual activity,[32]; compound 10.0 µM,82%
same,residual activity,[33]; compound 0.1 µM,102%
same,residual activity,[33]; compound 1.0 µM,75%
same,residual activity,[33]; compound 10.0 µM,35%
O=C(O)c1cc(N=Nc2ccc(S(=O)(=O)Nc3ccccn3)cc2)ccc1O,residual activity,[1]; compound 1.0 µM,98%
same,residual activity,[1]; compound 10.0 µM,89%
same,residual activity,[3]; compound 1.0 µM,111%
same,residual activity,[3]; compound 10.0 µM,105%
same,residual activity,[4]; compound 1.0 µM,104%
same,residual activity,[4]; compound 10.0 µM,109%
same,residual activity,[6]; compound 1.0 µM,98%
same,residual activity,[6]; compound 10.0 µM,103%
same,residual activity,[7]; compound 1.0 µM,107%
same,residual activity,[7]; compound 10.0 µM,86%
same,residual activity,[8]; compound 1.0 µM,117%
same,residual activity,[8]; compound 10.0 µM,109%
same,residual activity,[9]; compound 1.0 µM,106%
same,residual activity,[9]; compound 10.0 µM,87%
same,residual activity,[10]; compound 1.0 µM,93%
same,residual activity,[10]; compound 10.0 µM,107%
same,residual activity,[12]; compound 1.0 µM,94%
same,residual activity,[12]; compound 10.0 µM,83%
same,residual activity,[14]; compound 1.0 µM,95%
same,residual activity,[14]; compound 10.0 µM,109%
same,residual activity,[15]; compound 1.0 µM,106%
same,residual activity,[15]; compound 10.0 µM,102%
same,residual activity,[16]; compound 1.0 µM,103%
same,residual activity,[16]; compound 10.0 µM,110%
same,residual activity,[17]; compound 1.0 µM,108%
same,residual activity,[17]; compound 10.0 µM,103%
same,residual activity,[18]; compound 1.0 µM,100%
same,residual activity,[18]; compound 10.0 µM,77%
same,residual activity,[19]; compound 1.0 µM,102%
same,residual activity,[19]; compound 10.0 µM,105%
same,residual activity,[20]; compound 10.0 µM,100%
same,residual activity,[21]; compound 1.0 µM,104%
same,residual activity,[21]; compound 10.0 µM,97%
same,residual activity,[22]; compound 1.0 µM,99%
same,residual activity,[22]; compound 10.0 µM,99%
same,residual activity,[23]; compound 1.0 µM,94%
same,residual activity,[23]; compound 10.0 µM,92%
same,residual activity,[24]; compound 1.0 µM,109%
same,residual activity,[24]; compound 10.0 µM,95%
same,residual activity,[25]; compound 1.0 µM,97%
same,residual activity,[25]; compound 10.0 µM,91%
same,residual activity,[27]; compound 1.0 µM,76%
same,residual activity,[27]; compound 10.0 µM,54%
same,residual activity,[28]; compound 1.0 µM,101%
same,residual activity,[28]; compound 10.0 µM,96%
same,residual activity,[29]; compound 1.0 µM,129%
same,residual activity,[29]; compound 10.0 µM,122%
same,residual activity,[30]; compound 1.0 µM,90%
same,residual activity,[30]; compound 10.0 µM,85%
same,residual activity,[32]; compound 1.0 µM,96%
same,residual activity,[32]; compound 10.0 µM,103%
same,residual activity,[33]; compound 1.0 µM,102%
same,residual activity,[33]; compound 10.0 µM,104%
Cc1cccc(-c2nn(C(=S)Nc3ccccc3)cc2-c2ccnc3ccccc23)n1,residual activity,[1]; compound 0.1 µM,98%
same,residual activity,[1]; compound 1.0 µM,87%
same,residual activity,[2]; compound 0.1 µM,93%
same,residual activity,[2]; compound 1.0 µM,93%
same,residual activity,[3]; compound 0.1 µM,96%
same,residual activity,[3]; compound 1.0 µM,98%
same,residual activity,[4]; compound 0.1 µM,107%
same,residual activity,[4]; compound 1.0 µM,105%
same,residual activity,[5]; compound 0.1 µM,106%
same,residual activity,[5]; compound 1.0 µM,98%
same,residual activity,[6]; compound 0.1 µM,105%
same,residual activity,[6]; compound 1.0 µM,99%
same,residual activity,[7]; compound 0.1 µM,96%
same,residual activity,[7]; compound 1.0 µM,84%
same,residual activity,[8]; compound 0.1 µM,101%
same,residual activity,[8]; compound 1.0 µM,98%
same,residual activity,[9]; compound 0.1 µM,117%
same,residual activity,[9]; compound 1.0 µM,92%
same,residual activity,[10]; compound 0.1 µM,93%
same,residual activity,[10]; compound 1.0 µM,102%
same,residual activity,[11]; compound 0.1 µM,94%
same,residual activity,[11]; compound 1.0 µM,90%
same,residual activity,[12]; compound 0.1 µM,102%
same,residual activity,[12]; compound 1.0 µM,75%
same,residual activity,[13]; compound 0.1 µM,107%
same,residual activity,[13]; compound 1.0 µM,93%
same,residual activity,[14]; compound 0.1 µM,102%
same,residual activity,[14]; compound 1.0 µM,100%
same,residual activity,[15]; compound 0.1 µM,99%
same,residual activity,[15]; compound 1.0 µM,106%
same,residual activity,[16]; compound 0.1 µM,105%
same,residual activity,[16]; compound 1.0 µM,100%
same,residual activity,[17]; compound 0.1 µM,115%
same,residual activity,[17]; compound 1.0 µM,110%
same,residual activity,[18]; compound 0.1 µM,104%
same,residual activity,[18]; compound 1.0 µM,82%
same,residual activity,[19]; compound 0.1 µM,27%
same,residual activity,[19]; compound 1.0 µM,8%
same,residual activity,[20]; compound 0.1 µM,120%
same,residual activity,[20]; compound 1.0 µM,107%
same,residual activity,[21]; compound 0.1 µM,104%
same,residual activity,[21]; compound 1.0 µM,94%
same,residual activity,[22]; compound 0.1 µM,111%
same,residual activity,[22]; compound 1.0 µM,113%
same,residual activity,[23]; compound 0.1 µM,107%
same,residual activity,[23]; compound 1.0 µM,100%
same,residual activity,[24]; compound 0.1 µM,110%
same,residual activity,[24]; compound 1.0 µM,101%
same,residual activity,[25]; compound 0.1 µM,126%
same,residual activity,[25]; compound 1.0 µM,109%
same,residual activity,[26]; compound 0.1 µM,130%
same,residual activity,[26]; compound 1.0 µM,111%
same,residual activity,[27]; compound 0.1 µM,107%
same,residual activity,[27]; compound 1.0 µM,103%
same,residual activity,[28]; compound 0.1 µM,98%
same,residual activity,[28]; compound 1.0 µM,68%
same,residual activity,[29]; compound 0.1 µM,110%
same,residual activity,[29]; compound 1.0 µM,95%
same,residual activity,[30]; compound 0.1 µM,97%
same,residual activity,[30]; compound 1.0 µM,102%
same,residual activity,[31]; compound 0.1 µM,118%
same,residual activity,[31]; compound 1.0 µM,99%
same,residual activity,[32]; compound 0.1 µM,98%
same,residual activity,[32]; compound 1.0 µM,100%
same,residual activity,[33]; compound 0.1 µM,95%
same,residual activity,[33]; compound 1.0 µM,99%
